These results are taken from patent US5977169A, “Substituted tetronic acids useful for treating HIV and other retroviruses” (priority 1997, dated 1999).

Broadly, the inhibition is the relative decrease from the control value, in per cent.

The test system of test [1] is viral reverse transcriptase. The settings on record: literature; cited from earlier work.
The subject of a further test is HIV-I protease. The settings on record: literature; cited from earlier work.
A further test has as its target T1, HIV-1 protease (Human immunodeficiency virus type 1 group M subtype B, UniProt P04585).
T1 construct: The protease (or proteinase) enzyme, consisting of only 99 amino acids
The experiment in a line: In vitro HIV protease inhibitory assay (fluorescently labeled substrate, avidin-polystyrene particles). It counts as biochemical. The settings on record: for inhibition at 3.3 µM: HIV-1 dose 3.3 μM; for inhibition at 10 µM: HIV-1 dose 10.0 μM; for inhibition at 30 µM: HIV-1 dose 30.0 μM; for inhibition at 1 µM: HIV-1 dose 1.0 μM; for inhibition at 100 µM: HIV-1 dose 100.0 μM. Put shortly:
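Biotinylated, FITC-labelled peptide substrate cleaved by HIV-1 protease for 1 h at room temperature in the dark, in 0.1 M sodium acetate pH 5.5 with 1.0 M NaCl and 0.05% NP-40. Product separated from substrate with avidin-polystyrene beads and filtration; fluorescence read as percent inhibition at stated compound concentrations.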

Another test relates to HIV-1IIIB. Briefly: Inhibition of retroviral replication in human T-cell lines, e.g., MT4 and H9, infected with HIV-1IIIB. It counts as cell-based.

Square brackets hold non-standard residues; d marks the D form. Peptide text beside a SMILES is read from it. * marks the point of attachment. Sta = CC(C)C[C@H](N)[C@@H](O)CC(=O)O; Isovaleryl = CC(C)CC(=O)*

For the molecule `Cc1cn([C@H]2C[C@H](N=[N+]=[N-])[C@@H](CO)O2)c(=O)[nH]c1=O` [AZT, 3-azido-3-deoxythymidine], the “inhibition of viral reverse transcriptase” value in test [1] is on record as “known inhibitor of viral reverse transcriptase”.
In the case of `CC(C)CC(=O)N[C@H](C(=O)N[C@H](C(=O)N[C@@H](CC(C)C)[C@@H](O)CC(=O)N[C@@H](C)C(=O)N[C@@H](CC(C)C)[C@@H](O)CC(=O)O)C(C)C)C(C)C` [Pepstatin A] (Isovaleryl-VV[Sta]A[Sta]-OH), the “inhibition of HIV-I protease” value in the test on HIV-I protease was “disclosed as an inhibitor of HIV-I protease”.
As for `CCCC1(CCC)OC(=O)C(C(c2cccc(NS(=O)(=O)c3ccc(C#N)cc3)c2)C2CC2)=C1O` (stereo not shown) [IX-14], at HIV-1 protease, the inhibition at 3.3 µM was determined as 113%, the inhibition at 10 µM came to 111% and the inhibition at 30 µM turned out to be 119%. Besides, in the test with HIV-1IIIB, the “inhibition of retroviral replication” value is reported as “found to inhibit retroviral replication”.
The matching figures for `CCCC1(CCC)OC(=O)C(C(c2cccc(NS(=O)(=O)c3cn(C)cn3)c2)C2CC2)=C1O` (stereo not shown) [IX-17]: 108%, 111%, 108% and “found to inhibit retroviral replication”.
The matching figures for `CCCC1(CCC)OC(=O)C(C(c2cccc(NS(=O)(=O)c3cn(C)cn3)c2)C(C)C)=C1O` (stereo not shown) [IX-24, 1H-Imidazole-4-sulfonamide, N-(3-(1-(4-hydroxy-2-oxo-5,5-dipropyl-2,5-dihydro-furan-3-yl)-2-methyl-propyl)-phenyl)-1-methyl-]: 102%, 101%, 102% and “found to inhibit retroviral replication”.
With `O=C1OC(C(CCO)CCc2ccccc2)C(O)=C1C(c1ccccc1)C1CC1` (stereo not shown) [HX-2, 2(5H)-Furanone, 3-(cyclopropylphenylmethyl)-4-hydroxy-5-(1-(2-hydroxyethyl)--3-phenylpropyl)-], the inhibition at 0.1 µM at HIV-1 protease (HIV-1 dose 0.1 μM) is less than 10%. For the same molecule, at HIV-1 protease (HIV-1 dose 0.3 μM), the inhibition at 0.3 µM worked out at 13.5%.
For `CCCCC(CCc1ccccc1)C1OC(=O)C(C(c2ccccc2)C2CC2)=C1O` (stereo not shown) [GX-2, 2(5H)-Furanone, 3-(cyclopropylphenylmethyl)-4-hydroxy-5-(1-(2-phenyl-ethyl)pentyl)-], on HIV-1 protease, the inhibition at 3.3 µM was determined as 70.9%, the inhibition at 10 µM is 88.3% and the inhibition at 30 µM worked out at 74.9%.
On to `CCC1(CCCc2ccccc2)OC(=O)C(C(c2ccccc2)C2CC2)=C1O` (stereo not shown) [DX-11, 2(5H)-Furanone, 3-(cyclopropylphenylmethyl)-5-ethyl-4-hydroxy-5-(3-phenyl-propyl)-], for which, at HIV-1 protease, the inhibition at 3.3 µM was 101%, the inhibition at 10 µM was found to be 111% and the inhibition at 30 µM came out at 105%.
The matching figures for `CCC1CCCCC12OC(=O)C(C(c1ccccc1)C1CC1)=C2O` (single isomer, unassigned) [IX-33, 1-Oxaspiro[4.5]dec-3-en-2-one, 3-(cyclopropylphenylmethyl)-4-hydroxy-6-ethyl-]: 99%, 99.4% and 97.6%.
The matching figures for `CCCC1(CCC)OC(=O)C(C(c2cccc(NS(=O)(=O)c3nnnn3-c3ccccc3)c2)C2CC2)=C1O` (stereo not shown) [IX-50]: 108%, 104% and 106%.
The matching figures for `CC1(Cc2ccccc2)OC(=O)C(C(c2ccccc2)C2CC2)=C1O` (stereo not shown) [DX-2, 2(5H)-Furanone, 3-(cyclopropylphenylmethyl)-4-hydroxy-5-methyl-5-(phenyl-methyl)-]: 94.5%, 98.2% and 104%.
Take `CCC(CC)C1OC(=O)C(C(c2ccccc2)C2CC2)=C1O` (stereo not shown) [GX-8, 2(5H)-Furanone, 3-(cyclopropylphenylmethyl)-5-(1-ethylpropyl)-4-hydroxy-]: on HIV-1 protease, the inhibition at 3.3 µM was found to be 85.9%, the inhibition at 10 µM came to 104% and the inhibition at 30 µM came out at 84.3%.
The matching figures for `O=C1OC(Cc2ccccc2)(Cc2ccccc2)C(O)=C1C(c1ccccc1)C1CC1` (stereo not shown) [DX-5, 2(5H)-Furanone, 3-(cyclopropylphenylmethyl)-4-hydroxy-5,5-bis(phenylmethyl)-]: 103%, 116% and 103%.
On to `O=C1OC(CCCc2ccccc2)C(O)=C1C(c1ccccc1)C1CC1` (stereo not shown) [BX-3, 2(5H)-Furanone, 3-(cyclopropylphenylmethyl)-4-hydroxy-5-(3-phenylpropyl)-], for which, at HIV-1 protease, the inhibition at 1 µM came to 46%, the inhibition at 10 µM came out at 90.6% and the inhibition at 100 µM was determined as 93.2%.
In the case of `CCC(C1=C(O)C(Cc2ccccc2)OC1=O)c1ccccc1` (stereo not shown) [BX-9, 2(5H)-Furanone, 4-hydroxy-5-(phenylmethyl)-3-(1-phenylpropyl)-], at HIV-1 protease, the inhibition at 3.3 µM is 50.1%, the inhibition at 10 µM was determined as 75.1% and the inhibition at 30 µM worked out at 86.1%.
The matching figures for `CCCCC(CCc1ccccc1)C1OC(=O)C(C(c2ccccc2)C2CC2)=C1O` (single isomer, unassigned) [GX-1, 2(5H)-Furanone, 3-(cyclopropylphenylmethyl)-4-hydroxy-5-(1-(2-phenyl-ethyl)pentyl)-]: 74.6%, 89.2% and 74%.
The matching figures for `CCCC1(CCc2ccccc2)OC(=O)C(C(c2ccccc2)C2CC2)=C1O` (stereo not shown) [DX-8, 2(5H)-Furanone, 3-(cyclopropylphenylmethyl)-4-hydroxy-5-(2-phenyl-ethyl)-5-propyl-]: 114%, 109% and 103%.
The matching figures for `CCCC1(CCC)OC(=O)C(C(c2ccccc2)c2cccc(NS(=O)(=O)c3ccc(C#N)cc3)c2)=C1O` (stereo not shown) [IX-47, Benzenesulfonamide, 4-cyano-N-(3-((5,5-dipropyl-4-hydroxy-2-oxo-2,5-dihydro-3-furanyl)-phenyl-methyl)phenyl)-]: 93.5%, 103% and 88.3%.
For the molecule `CCCC1(CCCc2ccccc2)OC(=O)C(C(c2ccccc2)C2CC2)=C1O` (stereo not shown) [DX-1, 2(5H)-Furanone, 3-(cyclopropylphenylmethyl)-4-hydroxy-5-(3-phenyl-propyl)-5-propyl-], on HIV-1 protease, the inhibition at 3.3 µM turned out to be 108%, the inhibition at 10 µM was 106% and the inhibition at 30 µM amounted to 105%.
As to `O=C1OC(CCC2CCCCC2)C(O)=C1C(c1ccccc1)C1CC1` (stereo not shown) [BX-5, 2(5H)-Furanone, 5-(2-cyclohexylethyl)-3-(cyclopropylphenylmethyl)-4-hydroxy-], on HIV-1 protease, the inhibition at 1 µM stood at 12.6%, the inhibition at 10 µM was determined as 61.2% and the inhibition at 100 µM was determined as 71.5%.
